The test system of data set [1] is A-172. In words: IC50 on cell viability, Cell Counting Kit-8. The data set is classed as cell-based. Particulars: Homo sapiens; code 12, A-172, Brain Gliblastoma; cell viability 120 h after administration. The method, then: (§1) A panel of 36 human cell lines were first tested in terms of population doubling time and growth curves to determine the conditions for further assays. The cells were also tested to determine the dose of radiation that produces 50% cell viability (D50). […] Cell viability was determined 120 h after the administration of the compounds using the Cell Counting Kit-8 (Dojindo Molecular Technologies, Inc, Rockville, Md.). In the experiments, 0.1% SDS and 1% DMSO were used as positive and negative controls, respectively. Final concentrations of the compounds used in the experiments are listed below in Table 5: […]
On the technique in general: Tetrazolium dyes change colour on reduction, which living cells bring about.

For data set [2], the system named is C32. In words: IC50 on cell viability, Cell Counting Kit-8. Particulars: Homo sapiens; code 24, C32, Skin Melanoma; cell viability 120 h after administration. It counts as cell-based. The method, then: as §1
For data set [3], the system named is CHP-126. In words: IC50 on cell viability, Cell Counting Kit-8. Particulars: Homo sapiens; code 14, CHP-126, Brain Neuroblastoma; cell viability 120 h after administration. The data set is classed as cell-based. The method, then:
as §1

For data set [4], the system named is MSTO-211H. In words: IC50 on cell viability, Cell Counting Kit-8. It counts as cell-based. To be noted: Homo sapiens; code 21, MSTO-211H, Lung Biphasic Mesothelioma; cell viability 120 h after administration. As for the experimental part: as §1
Data set [5] has as its system SK-MEL-2. In words: IC50 on cell viability, Cell Counting Kit-8. It counts as cell-based. Particulars: Homo sapiens; code 25, SK-MEL-2, Skin Melanoma; cell viability 120 h after administration. The method, then:
as §1

In data set [6] the test system is T-47D. In words: IC50 on cell viability, Cell Counting Kit-8. The data set is classed as cell-based. To be noted: Homo sapiens, T47D; code 4, T-47D, Breast Carcinoma; cell viability 120 h after administration. The method, then:
as §1

In data set [7] the test system is HT-29 xenografts. In words: HT-29 xenograft growth. It counts as in vivo, nu/nu nude mice. To be noted: i.v., 40 mg of t-PTER or QUER/kg×day, single PF. The method, then:
Tumor growth was measured during a 30-day period. Tumor volume, one week after inoculation and before PF administration, was of 56+15 mm3. A. […] B. Growth profile of control ([…]) and t-PTER- and QUER (∘) (20 mg of each PF/kg)-treated HT-29-bearing mice. Data are means±S.D. of 18-20 mice per group. The significant test refers, for all groups, to the comparison between PTER and/or QUER and controls (treated with physiological saline) (*P<0.01). For HT-29 cancer cell xenograft experiments, female nu/nu nude mice (ages 6 to 8 weeks; […] Tumor volume was calculated based on two dimensions, measured using calipers, and was expressed in cubic millimeters according to the formula: […] For histological analysis the surgical and xenograft tissue samples were fixed in 4% formaldehyde, paraffin embedded, and stained with hematoxilin & eosin and safran. […] This study was conducted in compliance with international laws and policies (EEC Directive 86/609, OJ L 358. 1, Dec. 12, 1987; and NIH Guide for the Care and Use of Laboratory Animals, NIH Publ. No. 85-23, 1985). X rays were administered using a […] SL75 linear accelerator from Philips. For this purpose each mouse was anesthetized with nembutal (50 mg/kg i.p.), and fixed on a Perspex platform.

In data set [8] the test system is Human melanoma (A375), breast cancer (MCF7), lung cancer (A549), and colon cancer (HT29) cell lines. In words: Cell inhibition study (cell counting). Particulars: for cell number (relative proliferation index): 0-100 μM, FIGS. 8A through 8D; for IC50: Homo sapiens, all cell lines (A375, MCF7, A549, HT29). The data set is classed as cell-based. The method, then: Cancer cells (0.2×10^6 cells/well) were seeded in six well-plates and, 24 h later, were treated with PTER or RES ([…]) (ethanol as solvent vehicle was at a conc. of 0.3%). Cell growth was analyzed using the Countess® Automated Cell Counter (Invitrogen). Results were expressed as relative proliferation index±SD (n=4) where control is 100.
(§2) The aim of this study was to determine whether pterostilbene causes cytotoxicity in human tumors at concentrations that are reliable under in vivo conditions; and, to identify which death-related molecular mechanisms may be activated by the compound. Human melanoma (A375), breast cancer (MCF7), lung cancer (A549), and colon cancer (HT29) cell lines were used in this set of experiments. Pterostilbene and resveratrol were used in a μM range, between 10 μM (below the IC50 for all cell lines) and 200 μM (an unachievable in vivo concentration). Cell cycle and apoptosis induction were determined by flow cytometry.
Cells from the cancer lines (0.2×10^6 cells/well) were seeded in six well-plates and, 24 h later, were treated with pterostilbene or resveratrol (0-100 μM) (ethanol as solvent vehicle was at a conc. of 0.3%). Cell growth was analyzed using the Countess® Automated Cell Counter (Invitrogen). Results were expressed as relative proliferation index±SD (n=4) where control is 100.

For data set [9] the test system is unchanged. In words: Cell cycle study (flow cytometry). The data set is classed as cell-based. Particulars: treated for 24 h; FIG. 9. As for the experimental part:
Cancer cells (0.2×10^6 cells/well) were seeded in six well-plates and, 24 h later, were treated for 24 h with different concentrations ([…]) of PTER or ReES. Cells were trypsinized and pelleted at 1000×g for 2 min. Cells were resuspended in PBS. Ethanol was added up to a final 70% conc. The DNA cellular content was analyzed by flow cytometry (10000 cell events were collected per sample). Results are expressed as % of total cells±SD (n=3).
as §2
(§3) The effects of pterostilbene and resveratrol on cell cycle were tested. […] Both DNA synthesis and tubulin polymerization were seriously affected.
Background: Flow cytometry measures light scatter and fluorescence of single cells or particles in a stream.

Data set [10] relates to caspase 3. In words: Caspase-3 activity (Apo-ONE Homogeneous Caspase-3 Assay). It counts as cell-based, human. Particulars: within a 24 h-period. The method, then:
Aspase-3 activity was measured with Apo-ONE® Homogeneous Caspase-3 Assay (Promega). The assay was configured for 96 well plates (5000 cells/well). Cells were plated for 24 h. Capase-3/7 activities were evaluated 24 h after polyphenols addition. Fluorescence (a.u.) was expressed as relative index where control is 1. Results are expressed as relative proliferation index±SD (n=3).
as §3

Data set [11] deals with Human melanoma (A375), breast cancer (MCF7), lung cancer (A549), and colon cancer (HT29) cell lines. In words: Apoptosis induction (flow cytometry). To be noted: with increasing concentration. The data set is classed as cell-based. As for the experimental part: The aim of this study was to determine whether pterostilbene causes cytotoxicity in human tumors at concentrations that are reliable under in vivo conditions; and, to identify which death-related molecular mechanisms may be activated by the compound. Human melanoma (A375), breast cancer (MCF7), lung cancer (A549), and colon cancer (HT29) cell lines were used in this set of experiments. […] Cell cycle and apoptosis induction were determined by flow cytometry. […] The tumor cell death induced by pterostilbene appears to be partially independent of caspase activity.

The conditions of data set [12]: cited from earlier work.

Data on three compounds can be found in patent publication US20110136751A1, “Use of Polyphenols in the Treatment of Cancer” (Green Molecular, priority 2009, published 2011).

Some results are limits rather than exact numbers.

For `COc1cc(/C=C/c2ccc(O)cc2)cc(OC)c1` [t-PTER, trans-3,5-dimethoxy-4′-hydroxystilbene], the IC50 (commonly the concentration that inhibits the measured activity by half) in data set [1] was 29.7 µM; in [2] it was 30.2 µM; in data set [3], 1.42 µM; in data set [4], 12.3 µM; in data set [5], 17.3 µM; in [6], 35 µM. In [8], the IC50 was above 10 µM. The “CRC growth inhibition compared with the 20 mg/kg×day dose” value in data set [7] is reported as “not significantly different”. In data set [8], the “inhibitory effect on human tumor cell growth versus resveratrol” value was “stronger inhibitory effect”. The “cell number (relative proliferation index)” value in data set [8] is “reduced cell number in a concentration- and time-dependent manner”. Besides, the cell cycle result in [9] is reported as “arrested in S phase”. In addition, the “caspase 3 activation” value in [10] is on record as “no caspase 3 activation was detected”. Also, the apoptosis result in [11] is listed as “progressively activated”. Also, the half-life in blood in [12] (rabbit, in vivo) is recorded as around 77.9 min.

`O=c1c(O)c(-c2ccc(O)c(O)c2)oc2cc(O)cc(O)c12` [QUER, quercetin]: the IC50 in [1] is 10 µM; in data set [2] it was 22.1 µM; in [3], 19.1 µM; in [4], 19.8 µM; in [5] it was 11.6 µM; in data set [6], 10.7 µM. Besides, the “CRC growth inhibition compared with the 20 mg/kg×day dose” value in [7] is “not significantly different”.

Consider `Oc1ccc(/C=C/c2cc(O)cc(O)c2)cc1` [RI, trans-3,5,4′-trihydroxystilbene, reference compound], for which the IC50 is 47.6 µM in data set [1]; 18.5 µM in data set [2]; 26.7 µM in [3]; 6.37 µM in data set [4]; 10.7 µM in data set [5]; 25.6 µM in data set [6]. The compound further showed an IC50 in [8] above 10 µM. The “cell number (relative proliferation index)” value in data set [8] is “reduced cell number in a concentration- and time-dependent manner”. In [9], the cell cycle entry is given as “arrested in S phase”. In addition, the “caspase 3 activation” value in data set [10] is listed as “no caspase 3 activation was detected”. Besides, in data set [11], the apoptosis result is given as “progressively activated”. The “half-life in circulating blood” value in data set [12] (after i.v. administration of 20 mg/kg to e.g. rabbits) was around 14.4 min.
